The target in assay [1] is T1, V141A mutant mouse 5-HT3ASR (Mus musculus, UniProt P23979, V142A).
T1 sequence (P23979 24-483 isoform P23979-2 V142A): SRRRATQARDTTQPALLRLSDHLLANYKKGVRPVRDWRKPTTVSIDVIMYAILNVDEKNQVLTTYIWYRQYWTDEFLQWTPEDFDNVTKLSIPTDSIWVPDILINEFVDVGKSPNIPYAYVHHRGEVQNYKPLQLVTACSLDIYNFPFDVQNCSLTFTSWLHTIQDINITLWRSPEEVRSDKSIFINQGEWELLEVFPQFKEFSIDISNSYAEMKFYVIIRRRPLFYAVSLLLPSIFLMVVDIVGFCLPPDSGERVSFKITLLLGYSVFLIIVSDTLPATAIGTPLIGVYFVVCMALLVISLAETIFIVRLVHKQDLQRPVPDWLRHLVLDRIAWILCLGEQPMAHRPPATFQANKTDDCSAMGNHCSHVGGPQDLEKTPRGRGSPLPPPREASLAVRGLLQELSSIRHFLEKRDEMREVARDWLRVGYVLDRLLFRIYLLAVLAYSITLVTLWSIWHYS
As to the kind of experiment: biochemical.

For assay [2], the target named is T2, wildtype mouse 5-HT3ASR (Mus musculus, UniProt P23979).
T2 sequence (P23979 24-483 isoform P23979-2 limits assumed): T1 sequence (P23979 24-483 isoform P23979-2 V142A) with A119V
The assay can be described thus: biochemical.

The target in assay [3] is T3, N151A mutant mouse 5-HT3ASR (Mus musculus, UniProt P23979, N152A).
T3 sequence (P23979 24-483 isoform P23979-2 N152A): T1 sequence (P23979 24-483 isoform P23979-2 V142A) with A119V, N129A
As to the kind of experiment: biochemical.

The target in assay [4] is T4, Y140A mutant mouse 5-HT3ASR (Mus musculus, UniProt P23979, Y141A).
T4 sequence (P23979 24-483 isoform P23979-2 Y141A): T1 sequence (P23979 24-483 isoform P23979-2 V142A) with Y118A, A119V
As to the kind of experiment: Inhibition of [^3H]granisetron binding, Y140A receptor. Conditions: for relative increase in Ki, mutant vs wildtype: Y140A vs wildtype.

The target in assay [5] is T5, Y142A mutant mouse 5-HT3ASR (Mus musculus, UniProt P23979, Y143A).
T5 sequence (P23979 24-483 isoform P23979-2 Y143A): T1 sequence (P23979 24-483 isoform P23979-2 V142A) with A119V, Y120A
The assay can be described thus: Inhibition of [^3H]granisetron binding, Y142A receptor. Conditions: for relative increase in Ki, mutant vs wildtype: Y142A vs wildtype.

Assay [6] has as its target T6, K153A mutant mouse 5-HT3ASR (Mus musculus, UniProt P23979, K154A).
T6 sequence (P23979 24-483 isoform P23979-2 K154A): T1 sequence (P23979 24-483 isoform P23979-2 V142A) with A119V, K131A
As to the kind of experiment: biochemical.

Numbering of substitutions follows the chain as printed. Several values for one entry are separate records, joined by “and”; a condition that tells them apart may be missing. Identical values can stand only once.

As usually defined, the Ki is a dissociation constant, usually derived from enzyme kinetics or from competition with a known ligand. Read a low Ki as higher affinity. In the case of `COc1cc2c3cc1Oc1cc(ccc1O)C[C@@H]1c4c(cc(OC)c(O)c4Oc4ccc(cc4)C[C@@H]3N(C)CC2)CC[N+]1(C)C` [d-tc, d-tubocurarine], the Ki in assay [1] was determined as 4.7 ± 0.87 nM; in assay [2] it was 6 ± 2.1 nM; in assay [3], 9.3 ± 1.4 nM; in assay [4], 300 ± 120 nM; in assay [5] it was 39 ± 19 nM; in assay [6], 17 ± 3 nM. Besides, the “relative increase in Ki, mutant vs wildtype” value in assay [4] was 50 ± 12 fold and 50 fold; in assay [5], 6.5 ± 1.5 fold and 6.5 fold.
On to `c1ccc(Cn2c(N3CCNCC3)nc3ccccc32)cc1` [lerisetron], for which the Ki was 0.2 ± 0.02 nM in assay [1]; 0.8 ± 0.19 nM in assay [2]; 3.7 ± 0.62 nM in assay [3]; 2.1 ± 0.33 nM in assay [4]; 130 ± 28 nM in assay [5]; 3 ± 0.66 nM in assay [6]. The “relative increase in Ki, mutant vs wildtype” value is 4.6 fold in assay [4]; 160 ± 37 fold and 160 fold in assay [5].

The record behind these values is article PMC117120 (BMC Biochemistry, 2002).
